# Measurements as given in PubChem BioAssay (NCI).
# “And” between values parts separate entries of the source, which are not always exact repeats. Equal entries are not always repeated.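 Results reflect a 48-hour exposure of cells in 96-well plates to compound at five concentrations. Here, GI50 denotes the concentration required for 50% inhibition of growth. Definition used: TGI = concentration required for complete inhibition of growth.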
# What was measured:
# Assay in all cases: NCI-60 cell line screen, 48 h
# 786-0 renal = tested on: 786-0 renal
# NCI/ADR-RES ovarian = tested on: NCI/ADR-RES ovarian
# HT29 colon = tested on: HT29 colon
# NCI-H460 lung = tested on: NCI-H460 lung
# HL-60(TB) leukemia = tested on: HL-60(TB) leukemia
# UO-31 renal = tested on: UO-31 renal
# SF-295 CNS = tested on: SF-295 CNS
# PC-3 prostate = tested on: PC-3 prostate
# HS 578T breast = tested on: HS 578T breast
# IGROV1 ovarian = tested on: IGROV1 ovarian
SMILES,GI50 (786-0 renal),TGI (786-0 renal),GI50 (NCI/ADR-RES ovarian) [µM],TGI (NCI/ADR-RES ovarian) [µM],GI50 (HT29 colon),TGI (HT29 colon) [µM],GI50 (NCI-H460 lung),TGI (NCI-H460 lung) [µM],GI50 (HL-60(TB) leukemia) [µM],TGI (HL-60(TB) leukemia),GI50 (UO-31 renal) [µM],TGI (UO-31 renal),GI50 (SF-295 CNS) [µM],TGI (SF-295 CNS),GI50 (PC-3 prostate) [µM],TGI (PC-3 prostate) [µM],GI50 (HS 578T breast) [µM],TGI (HS 578T breast) [µM],GI50 (IGROV1 ovarian),TGI (IGROV1 ovarian)
COC(=O)Nc1nc2ccc(Sc3ccc(NC(=O)Nc4cc(C(F)(F)F)ccc4F)cc3)cc2[nH]1,5.64 µM,13.8 µM,2.74,11.5,1.4 µM,4.54,2.73 µM,6.79,1.46,12.3 µM,5.9,19.8 µM,1.96,7.52 µM,3.38,11.1,1.35,7.24,3.52 µM,11.1 µM
O=C(NO)C(O)C(O)C(O)C(O)CO (centres undefined),> 100 µM and 55.9 µM,> 100 µM,> 100,> 100,> 100 µM and 38.1 µM,> 100,54.6 µM and 37.9 µM,> 100,> 21.5,> 21.5 µM,> 100,> 100 µM,–,> 100 µM,> 100,> 100,> 100,> 100,> 100 µM and 23.3 µM,> 100 µM and 80.2 µM
CCNC(=O)Oc1ccc(/C(=C(\C)c2ccc(Cl)cc2)c2ccc(OCCN3CCCCC3)cc2)cc1,1.79 µM,3.43 µM,5.59,22.7,3.16 µM,10.9,2.19 µM,4.64,1.99,4.47 µM,2.05,5.45 µM,1.95,4.36 µM,3.38,11.3,3.62,17.2,4.13 µM,15.8 µM
CN1CCN(C(=S)SCN2C(=O)c3ccccc3S2(=O)=O)CC1,12 µM,43 µM,34,> 100,4.24 µM,18,17.8 µM,96.1,0.492,20.3 µM,94.6,> 100 µM,> 100,> 100 µM,10.8,39.2,58.7,> 100,44.8 µM,> 100 µM
O=[N+]([O-])c1cccc(-c2ncc(-c3ccc(Cl)cc3Cl)[nH]2)c1,5.16 µM,11 µM,11.6,> 83.3,1.88 µM,4.79,7.26 µM,30.2,3.8,17.3 µM,5.18,15.3 µM,2.14,5.28 µM,3.69,14.9,3.89,> 49.5,6.65 µM,13.5 µM
C#Cc1cccc(Nc2ncnc3ccc(-c4cncc(NS(C)(=O)=O)c4)cc23)c1,1.77 µM,6.74 µM,21.7,> 100,1.86 µM,6.28,3.46 µM,13.6,1.87,6.83 µM,1.53,14.5 µM,2.47,10.5 µM,2.21,9.95,1.1,4.65,0.309 µM,1.68 µM
CCSc1nc(N)c2cnn(C)c2n1,80 µM,> 100 µM,> 100,> 100,58.4 µM,> 100,31.6 µM,> 100,52.1,> 100 µM,38.3,> 100 µM,51.7,> 100 µM,38.9,> 100,30.7,74,53.5 µM,> 100 µM
CCc1nc(N)nc(N)c1-c1ccc([N+](=O)[O-])c(Cl)c1,–,> 100 µM,–,> 100,–,> 100,–,> 100,–,> 100 µM,–,> 100 µM,–,> 100 µM,–,> 100,–,> 100,–,> 100 µM
Cn1c(COC(=O)NCCN2CCOCC2)nc2c(N3CCOCC3)nc(-c3ccccc3)nc21,0.843 µM,2.23 µM,1.93,6.78,0.35 µM,1.66,1.25 µM,2.77,0.521,4.03 µM,0.838,2.18 µM,2.09,5.99 µM,1.33,3,1.49,5.38,0.656 µM,2.15 µM
Cc1cc2c(cc1Cl)SC1=NN(C)C(c3ccccc3O)N1S2(=O)=O (centres undefined),> 100 µM,> 100 µM,39,> 100,> 100 µM,> 100,37.4 µM,> 100,> 100,> 100 µM,53.7,> 100 µM,43.6,> 100 µM,> 100,> 100,> 100,> 100,77.8 µM,> 100 µM
CC[C@@]1(OC(=O)CN(C)C)C(=O)OCc2c1cc1n(c2=O)Cc2cc3ccccc3nc2-1,–,1.11 µM and 0.125 µM,0.0377,–,0.156 µM,–,–,0.147,0.0282,0.389 µM and 0.179 µM,0.0181,0.231 µM and 0.107 µM,< 0.0127,0.673 µM and 0.938 µM,0.476,–,3.53,> 100,0.217 µM,4.43 µM and > 23.3 µM
CC1(C)CC2(C)OC2C2(C1)N=NC(=Nc1ccccc1)O2 (centres undefined),2.33 µM,5.63 µM,4.44,55.2,2.95 µM,10.9,11.3 µM,31.5,5.26,26.1 µM,1.67,4.02 µM,13.3,29.1 µM,11.5,28.9,17.3,71.7,2.48 µM,5.99 µM
Cc1nc(C(N)=S)sc1C(=O)CC(=O)C(=O)Nc1cccc(Cl)c1C,–,> 100 µM,–,> 100,–,> 100,–,> 100,–,> 100 µM,–,> 100 µM,–,> 100 µM,–,> 100,–,> 100,–,> 100 µM
CCCCCCCCCCCCCCCC(=O)OCC1OC(n2ccc(N)nc2=O)C(O)C1O (centres undefined),–,> 50.5 µM,–,> 100,–,> 100,–,> 40.6,–,> 61.8 µM,–,> 44.7 µM,–,> 100 µM,–,> 100,–,> 100,–,> 100 µM
